Data published in US12168044B2, “Peptides and combination of peptides for use in immunotherapy against non-small cell lung cancer and other cancers” (priority 2016, dated 2024).

Assays:
[1] = system: HLA-A*0201/Kb transgenic mice; details: cited from earlier work
[2] = system: T-cells of healthy donors; experiment: Immunogenicity and functional T-cell data (Example 6); type: cell-based, human
Description: The immunogenicity of MAG-003 was tested using protocols that mimic the manufacturing procedure for a pharmaceutical product.

[3] = target: HLA-A*0201 molecule (Homo sapiens, UniProt P04439, D140Y/D185E/D98H/E176V/E277Q/G131W/G231S/I119V/I121R/I166T/I218V/L300P/L318F/N151K/N90K/P208A/P217A/Q86G/Q94H/R138H/R169H/T345S); details: Wu et al. 2011; cited from earlier work
[4] = target: HLA-A*02:01 (Homo sapiens, UniProt P04439, D140Y/D185E/D98H/E176V/E277Q/G131W/G231S/I119V/I121R/I166T/I218V/L300P/L318F/N151K/N90K/P208A/P217A/Q86G/Q94H/R138H/R169H/T345S); experiment: Binding to HLA-A*02:01 (additional data, Example 6)
[5] = system: HLA-A*0201-positive PBMCs; details: cited from earlier work
[6] = system: advanced esophageal, stomach or lung cancer; details: of 15 patients who completed one vaccination cycle; cited from earlier work

**Q.** With “KVLEHVVRV (listed as Homo sapiens) [MAG-003]” as the molecule, how does the “elicitation of peptide-specific CTLs” value ([1]; HLA-A*0201/Kb transgenic mice, Jia et al. 2010) read?
**A.** elicits peptide-specific CTLs

**Q.** And the “killing of peptide loaded target cells by generated T cells” value [2]?
**A.** able to kill peptide loaded target cells

**Q.** And the “priming of peptide-specific T-cells” value ([2]; healthy donors, protocols mimicking manufacturing procedure)?
**A.** Priming of MAG-003-specific T-cells was observed

**Q.** And the “binding affinity and stability towards HLA-A*0201 molecule” value [3]?
**A.** potent binding affinity and stability

**Q.** What about the “binding to HLA-A*02:01” value [4] of the same molecule?
**A.** very good binding

**Q.** What about the “lysis of target cells by the induced CTLs” value ([5]; Jia et al. 2010) of the same molecule?
**A.** lyse target cells in an HLA-A*0201-restricted fashion

**Q.** What about the “elicitation of peptide-specific CTLs” value ([5]; in vitro from HLA-A*0201-positive PBMCs, Jia et al. 2010) of the same molecule?
**A.** elicits peptide-specific CTLs

**Q.** What does the source list for “p286-1Y2L9L: MAG-003 variant having 3 amino acid substitutions, printed as SEQ ID NO:3 (KVLEHVVRA; listed as Homo sapiens)”?
**A.** induction of specific CTLs that lyse target cancer cells ([1]; HLA-A2.1/Kb transgenic mice, Wu et al. 2011): capability to induce specific CTLs; binding affinity and stability towards HLA-A*0201 molecule [3]: potent binding affinity and stability; induction of specific CTLs that lyse target cancer cells ([5]; PBMCs of healthy donors, Wu et al. 2011): capability to induce specific CTLs

**Q.** For “p286-1Y2L: MAG-003 variant having 2 amino acid substitutions, printed as SEQ ID NO:2 (KVLEHVVRL; listed as Homo sapiens)”, which “binding affinity and stability towards HLA-A*0201 molecule” value [3] is on record?
**A.** potent binding affinity and stability

B1: MAGEA4 vaccine: MAGEA4 vaccine containing protein, given subcutaneously once every 2 weeks in six doses (Saito et al., 2014) (protein, UniProt P43358 1-317, looked up)
Melanoma-associated antigen 4: MSSEQKSQHCKPEEGVEAQEEALGLVGAQAPTTEEQEAAVSSSSPLVPGTLEEVPAAESAGPPQSPQGASALPTTISFTCWRQPNEGSSSQEEEGPSTSPDAESLFREALSNKVDELAHFLLRKYRAKELVTKAEMLERVIKNYKRCFPVIFGKASESLKMIFGIDVKEVDPASNTYTLVTCLGLSYDGLLGNNQIFPKTGLLIIVLGTIAMEGDSASEEEIWEELGVMGVYDGREHTVYGEPRKLLTQDWVQENYLEYRQVPGSNPARYEFLWGPRALAETSYVKVLEHVVRVNARVRIAYPSLREAALLEEEEGV
modifications: vaccine formulation
**Q.** For B1, which “patients with CD4 T-cell response” value [6] is on record?
**A.** three

**Q.** What about the “patients with CD8 T-cell response” value [6] of the same molecule?
**A.** six

**Q.** What about the “patients with MAGEA4-specific humoral response” value [6] of the same molecule?
**A.** four
